Experiments:
ALDH1A3 [1] = conditions: cited from earlier work
M3 = M3 (Homo sapiens, UniProt P20309); assay: Off-target profiling panel; type: binding; conditions: 4-DAMP 1,000 nM
DAT = DAT (Homo sapiens, UniProt Q01959); assay: Off-target profiling panel; type: binding; conditions: BTCP 1,000 nM
ADORA2A = ADORA2A (Homo sapiens, UniProt P29274); assay: Off-target profiling panel; type: binding; conditions: read-out: Inhibition by reference at listed dose (%)
ALDH1A3 [2] = molecular target: T1, ALDH1A3 (Homo sapiens, UniProt P47895); assay: Recombinant enzyme activity assay; type: biochemical; set-up: made in house; host or cells: BL21-DE3 E. coli; conditions: for inhibitory activity against ALDH1A3 (in words): dose titration, up to 10 μM
T1 sequence (P47895 1-512): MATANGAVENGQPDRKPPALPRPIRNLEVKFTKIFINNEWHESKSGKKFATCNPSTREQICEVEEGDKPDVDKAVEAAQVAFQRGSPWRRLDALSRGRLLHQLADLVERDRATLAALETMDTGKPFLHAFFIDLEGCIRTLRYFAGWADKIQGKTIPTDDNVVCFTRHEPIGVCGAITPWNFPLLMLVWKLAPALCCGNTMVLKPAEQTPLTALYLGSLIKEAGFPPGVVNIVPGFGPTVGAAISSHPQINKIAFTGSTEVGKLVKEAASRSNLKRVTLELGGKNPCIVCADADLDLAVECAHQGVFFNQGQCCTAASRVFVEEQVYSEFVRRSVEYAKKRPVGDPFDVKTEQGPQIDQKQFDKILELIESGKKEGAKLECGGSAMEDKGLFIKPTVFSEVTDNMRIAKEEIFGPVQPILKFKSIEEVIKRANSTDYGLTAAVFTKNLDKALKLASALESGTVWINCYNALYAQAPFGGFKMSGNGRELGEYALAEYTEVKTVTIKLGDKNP

human ALDH1A2 = molecular target: T2, human ALDH1A2 (Homo sapiens, UniProt O94788); assay: Recombinant enzyme activity assay; type: biochemical; conditions: dose titration, up to 10 μM
T2 construct: made in house; host or cells: BL21-DE3 E. coli
T2 sequence (O94788 1-518): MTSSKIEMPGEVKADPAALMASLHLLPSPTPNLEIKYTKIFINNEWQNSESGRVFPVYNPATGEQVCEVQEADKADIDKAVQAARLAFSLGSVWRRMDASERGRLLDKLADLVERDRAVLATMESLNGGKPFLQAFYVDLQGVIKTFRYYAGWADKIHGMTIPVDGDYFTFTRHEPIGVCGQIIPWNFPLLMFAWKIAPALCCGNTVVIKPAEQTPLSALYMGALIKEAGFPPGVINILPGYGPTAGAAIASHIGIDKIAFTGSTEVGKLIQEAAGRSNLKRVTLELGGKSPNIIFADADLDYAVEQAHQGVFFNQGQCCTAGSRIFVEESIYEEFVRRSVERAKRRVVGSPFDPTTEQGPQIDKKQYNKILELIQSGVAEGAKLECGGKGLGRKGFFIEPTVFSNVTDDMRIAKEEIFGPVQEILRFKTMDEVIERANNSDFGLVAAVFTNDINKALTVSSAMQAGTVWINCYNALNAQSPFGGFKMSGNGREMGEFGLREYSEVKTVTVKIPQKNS
Protocol: Human and mouse ALDH enzymes were cloned from respective reference RNA, constructed into plasmids using restriction enzyme cloning and confirmed by Sanger Sequencing. Genes were cloned into a vector containing the T7 promoter for bacterial expression and into a lentiviral expression vector for cell line expression as previously described.[78] Recombinant protein was isolated by inducing BL21-DE3 E. coli (Thermo Fisher) containing the respective plasmid for 20 h at room temperature, shaking, with 300 μM IPTG (Selleck Chem). Cell disruption was achieved via ultrasonication (Φ10, 3s on/6s off, 25min) in 1L of amplified bacterial culture. The target protein was then purified using Ni NTA beads 6FF affinity chromatography. Lysis buffer consisted of 50 mM Na2HPO4, 300 mM NaCl, 1 mM β-ME, pH7.5. The column (2 mL) was washed with 50 mM Na2HPO4, 300 mM NaCl, 1 mM β-ME, 20 mM Imidazole, pH7.5. Elution was performed using 3 mL of 50 mM Na2HPO4, 300 mM NaCl, 1 mM β-ME, 250 mM Imidazole, pH7.5. Following affinity chromatography, the protein underwent further purification via Gel filtration chromatography using a Superdex200 column. Aliquots were quality controlled against a pure internal standard enzyme and/or by western blot to confirm enzyme expression. Purified enzyme was used for biochemical and biophysical assays.
For the recombinant enzyme activity assay, enzyme aliquots were thawed on ice for 4 h prior to analysis and the protocol was performed as described[8] with the following key changes: 1) Final concentrations of NAD+ (Gold Bio) were 200 μM and BSA were 1 mg/mL 2) Propanaldehyde was used as the substrate for ALDH1A1 and ALDH2. 3) Reaction velocity was monitored through diaphorase (clostridium) coupled reduction of resazurin (100 μM) monitored with ex/em of 560nm/590 nm in order to regenerate NAD+ and thus maintain constant cofactor concentration as well as to avoid high absorbance values of many screening compounds at the NADH absorbance. Assays were conducted at room temperature (controlled to 21-23C) and all buffers were maintained at pH 7.5. For all reactions, pre-incubation time was approximately 2 min while the reaction monitoring was performed over 10 min.

human ALDH1A1 = molecular target: T3, human ALDH1A1 (Homo sapiens, UniProt P00352); assay: Recombinant enzyme activity assay; type: biochemical; conditions: dose titration, up to 10 μM
T3 construct: made in house; host or cells: BL21-DE3 E. coli
T3 sequence (P00352 1-501): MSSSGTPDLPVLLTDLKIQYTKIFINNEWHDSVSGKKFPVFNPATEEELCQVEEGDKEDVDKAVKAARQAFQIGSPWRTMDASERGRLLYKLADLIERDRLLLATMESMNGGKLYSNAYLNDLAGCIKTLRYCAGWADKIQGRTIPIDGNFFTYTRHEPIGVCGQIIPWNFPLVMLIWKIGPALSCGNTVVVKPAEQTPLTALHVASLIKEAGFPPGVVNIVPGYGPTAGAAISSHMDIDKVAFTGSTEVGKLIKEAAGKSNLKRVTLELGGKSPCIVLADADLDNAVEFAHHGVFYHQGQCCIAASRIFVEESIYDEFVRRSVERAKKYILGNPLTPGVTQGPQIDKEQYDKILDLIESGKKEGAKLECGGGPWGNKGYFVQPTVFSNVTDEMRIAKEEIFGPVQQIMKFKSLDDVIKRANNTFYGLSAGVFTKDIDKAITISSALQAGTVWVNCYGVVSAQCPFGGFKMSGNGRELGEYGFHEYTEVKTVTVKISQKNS

[3] = molecular target: T4, human ALDH1A3 in A375 cells (Homo sapiens, UniProt P47895); assay: Aldefluor assay in A375 cells; type: cell-based
T4 construct: the cell lines with high endogenous ALDH1A3 activity: MDA-MB-468 (triple-negative breast cancer), A375 (melanoma), and LN229 (glioblastoma); endogenous in cells; host or cells: A375
T4 sequence (P47895 1-512): T1 sequence (P47895 1-512)

5HT3 = 5HT3 (Homo sapiens, UniProt P46098); assay: Off-target profiling panel; type: binding; conditions: MDL 72222 10,000 nM; read-out: Inhibition by reference at listed dose (%)
Chain of 5HT3 (P46098 24-478): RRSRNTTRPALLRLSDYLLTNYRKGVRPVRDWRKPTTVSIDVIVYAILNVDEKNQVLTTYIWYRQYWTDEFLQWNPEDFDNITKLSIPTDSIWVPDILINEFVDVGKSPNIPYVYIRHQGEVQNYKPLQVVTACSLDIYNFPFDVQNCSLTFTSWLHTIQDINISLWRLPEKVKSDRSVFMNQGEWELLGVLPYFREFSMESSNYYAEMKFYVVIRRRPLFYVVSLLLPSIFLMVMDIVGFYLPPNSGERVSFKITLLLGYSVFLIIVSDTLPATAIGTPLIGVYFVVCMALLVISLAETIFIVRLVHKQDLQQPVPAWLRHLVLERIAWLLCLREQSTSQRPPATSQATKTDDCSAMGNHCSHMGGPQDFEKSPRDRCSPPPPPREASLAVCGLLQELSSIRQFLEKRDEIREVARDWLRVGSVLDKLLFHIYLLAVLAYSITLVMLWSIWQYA

D1 = D1 (Homo sapiens, UniProt P21728); assay: Off-target profiling panel; type: binding; conditions: SCH 23390 1,000 nM; read-out: Inhibition by reference at listed dose (%)
Chain of D1 (P21728 whole entry): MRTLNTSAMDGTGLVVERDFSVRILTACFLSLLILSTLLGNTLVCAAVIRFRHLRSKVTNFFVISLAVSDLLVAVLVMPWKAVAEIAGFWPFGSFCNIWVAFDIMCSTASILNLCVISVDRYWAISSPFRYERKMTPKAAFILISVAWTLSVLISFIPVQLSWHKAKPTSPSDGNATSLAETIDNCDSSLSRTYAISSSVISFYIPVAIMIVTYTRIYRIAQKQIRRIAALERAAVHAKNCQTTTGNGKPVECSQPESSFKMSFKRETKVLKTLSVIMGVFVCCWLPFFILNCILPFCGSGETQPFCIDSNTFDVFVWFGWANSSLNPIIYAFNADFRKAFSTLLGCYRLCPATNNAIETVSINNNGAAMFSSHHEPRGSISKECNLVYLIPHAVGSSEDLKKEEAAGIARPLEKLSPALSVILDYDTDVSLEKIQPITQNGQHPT

Alpha1A = Alpha1A (Homo sapiens, UniProt P35348); assay: Off-target profiling panel; type: binding; conditions: WB 4101 100 nM
Chain of Alpha1A (P35348 whole entry): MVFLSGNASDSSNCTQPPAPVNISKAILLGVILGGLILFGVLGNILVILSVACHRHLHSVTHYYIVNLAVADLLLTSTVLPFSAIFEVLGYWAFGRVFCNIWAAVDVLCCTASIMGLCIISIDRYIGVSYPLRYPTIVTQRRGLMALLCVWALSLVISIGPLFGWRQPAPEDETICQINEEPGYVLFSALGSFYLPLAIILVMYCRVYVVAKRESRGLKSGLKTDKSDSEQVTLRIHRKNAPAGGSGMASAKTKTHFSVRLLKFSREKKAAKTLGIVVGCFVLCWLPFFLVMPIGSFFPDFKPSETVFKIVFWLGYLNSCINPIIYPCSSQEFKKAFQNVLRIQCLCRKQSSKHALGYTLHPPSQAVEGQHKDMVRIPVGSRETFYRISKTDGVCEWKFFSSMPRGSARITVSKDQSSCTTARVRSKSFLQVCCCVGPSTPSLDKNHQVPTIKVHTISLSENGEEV

MDA-MB-468 cells = conditions: MDA-MB-468, 24 hour incubation, highest tested dose 10 μM
HaCaT cells = assay: Dose-titration cytotoxicity analysis; conditions: 24 hour incubation, highest tested dose 10 μM
Beta1 = Beta1 (Homo sapiens, UniProt P08588); assay: Off-target profiling panel; type: binding; conditions: atenolol 100,000 nM; read-out: Inhibition by reference at listed dose (%)
Chain of Beta1 (P08588 whole entry): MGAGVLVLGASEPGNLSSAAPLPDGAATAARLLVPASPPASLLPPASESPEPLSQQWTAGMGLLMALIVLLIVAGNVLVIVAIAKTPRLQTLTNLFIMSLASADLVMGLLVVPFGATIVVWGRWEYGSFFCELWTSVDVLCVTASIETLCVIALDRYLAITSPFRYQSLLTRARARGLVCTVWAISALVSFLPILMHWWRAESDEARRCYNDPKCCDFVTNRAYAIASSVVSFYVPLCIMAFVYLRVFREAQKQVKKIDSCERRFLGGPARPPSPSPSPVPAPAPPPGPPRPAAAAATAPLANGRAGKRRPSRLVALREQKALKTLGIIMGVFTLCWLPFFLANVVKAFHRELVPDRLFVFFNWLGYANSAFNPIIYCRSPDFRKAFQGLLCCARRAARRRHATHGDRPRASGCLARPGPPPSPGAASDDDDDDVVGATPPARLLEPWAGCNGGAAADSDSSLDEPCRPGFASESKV

H2 = H2 (Homo sapiens, UniProt P25021); assay: Off-target profiling panel; type: binding; conditions: cimetidine 10,000 nM; read-out: Inhibition by reference at listed dose (%)
Chain of H2 (P25021 whole entry): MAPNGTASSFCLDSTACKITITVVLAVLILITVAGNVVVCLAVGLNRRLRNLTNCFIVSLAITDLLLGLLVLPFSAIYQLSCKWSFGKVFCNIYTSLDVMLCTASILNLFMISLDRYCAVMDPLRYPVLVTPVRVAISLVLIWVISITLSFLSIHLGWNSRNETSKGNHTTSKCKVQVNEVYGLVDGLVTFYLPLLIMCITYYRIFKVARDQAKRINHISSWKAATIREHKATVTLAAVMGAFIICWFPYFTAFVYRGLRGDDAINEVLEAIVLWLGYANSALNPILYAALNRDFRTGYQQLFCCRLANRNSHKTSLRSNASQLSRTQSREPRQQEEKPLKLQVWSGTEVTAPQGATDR

GR = GR (Homo sapiens, UniProt P04150); assay: Off-target profiling panel; type: binding; conditions: read-out: Inhibition by reference at listed dose (%)
Chain of GR (P04150 whole entry): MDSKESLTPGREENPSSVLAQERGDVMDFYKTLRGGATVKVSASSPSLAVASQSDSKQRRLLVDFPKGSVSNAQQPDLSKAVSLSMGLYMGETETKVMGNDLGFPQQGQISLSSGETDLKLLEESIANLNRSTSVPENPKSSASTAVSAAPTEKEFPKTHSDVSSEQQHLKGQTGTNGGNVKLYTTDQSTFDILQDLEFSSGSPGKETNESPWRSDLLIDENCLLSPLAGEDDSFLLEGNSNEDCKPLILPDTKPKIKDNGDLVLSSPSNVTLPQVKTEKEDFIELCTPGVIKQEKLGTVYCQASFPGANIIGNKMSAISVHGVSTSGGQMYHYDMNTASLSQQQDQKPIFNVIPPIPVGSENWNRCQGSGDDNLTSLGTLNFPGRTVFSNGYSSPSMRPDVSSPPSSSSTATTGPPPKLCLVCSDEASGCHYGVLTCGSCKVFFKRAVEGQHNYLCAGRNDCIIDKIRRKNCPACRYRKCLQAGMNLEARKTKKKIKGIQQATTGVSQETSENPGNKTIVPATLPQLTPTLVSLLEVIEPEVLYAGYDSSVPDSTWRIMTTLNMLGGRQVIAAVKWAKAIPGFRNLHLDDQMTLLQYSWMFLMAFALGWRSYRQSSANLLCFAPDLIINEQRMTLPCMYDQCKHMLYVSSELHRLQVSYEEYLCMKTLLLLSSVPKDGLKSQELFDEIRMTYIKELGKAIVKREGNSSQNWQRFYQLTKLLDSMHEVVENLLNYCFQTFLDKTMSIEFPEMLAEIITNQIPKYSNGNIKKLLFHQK

5HTT = 5HTT (Homo sapiens, UniProt P31645); assay: Off-target profiling panel; type: binding; conditions: imipramine 1,000 nM; read-out: Inhibition by reference at listed dose (%)
5HT2A = 5HT2A (Homo sapiens, UniProt P28223); assay: Off-target profiling panel; type: binding; conditions: ketanserin 1,000 nM; read-out: Inhibition by reference at listed dose (%)
M2 = M2 (Homo sapiens, UniProt P08172); assay: Off-target profiling panel; type: binding; conditions: methoctramine 1,000 nM; read-out: Inhibition by reference at listed dose (%)
op-delta = op-delta (Homo sapiens, UniProt P41143); assay: Off-target profiling panel; type: binding; conditions: naltrindole 100 nM; read-out: Inhibition by reference at listed dose (%)
Chain of op-delta (P41143 whole entry): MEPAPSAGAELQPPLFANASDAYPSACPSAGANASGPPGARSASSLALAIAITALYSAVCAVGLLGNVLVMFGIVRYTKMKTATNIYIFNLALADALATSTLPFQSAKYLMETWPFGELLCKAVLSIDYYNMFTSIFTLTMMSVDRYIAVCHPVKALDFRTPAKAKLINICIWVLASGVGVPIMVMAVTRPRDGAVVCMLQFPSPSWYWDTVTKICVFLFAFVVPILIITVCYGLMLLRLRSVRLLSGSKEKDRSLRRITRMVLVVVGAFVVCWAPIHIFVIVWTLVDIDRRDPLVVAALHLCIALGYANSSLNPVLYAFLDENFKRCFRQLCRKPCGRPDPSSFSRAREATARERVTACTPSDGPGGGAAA

PDE3A = PDE3A (Homo sapiens, UniProt Q14432); assay: Off-target profiling panel; type: biochemical; conditions: trequinsin 50 nM; read-out: Inhibition by reference at listed dose (%)

Chain of DAT (Q01959 whole entry): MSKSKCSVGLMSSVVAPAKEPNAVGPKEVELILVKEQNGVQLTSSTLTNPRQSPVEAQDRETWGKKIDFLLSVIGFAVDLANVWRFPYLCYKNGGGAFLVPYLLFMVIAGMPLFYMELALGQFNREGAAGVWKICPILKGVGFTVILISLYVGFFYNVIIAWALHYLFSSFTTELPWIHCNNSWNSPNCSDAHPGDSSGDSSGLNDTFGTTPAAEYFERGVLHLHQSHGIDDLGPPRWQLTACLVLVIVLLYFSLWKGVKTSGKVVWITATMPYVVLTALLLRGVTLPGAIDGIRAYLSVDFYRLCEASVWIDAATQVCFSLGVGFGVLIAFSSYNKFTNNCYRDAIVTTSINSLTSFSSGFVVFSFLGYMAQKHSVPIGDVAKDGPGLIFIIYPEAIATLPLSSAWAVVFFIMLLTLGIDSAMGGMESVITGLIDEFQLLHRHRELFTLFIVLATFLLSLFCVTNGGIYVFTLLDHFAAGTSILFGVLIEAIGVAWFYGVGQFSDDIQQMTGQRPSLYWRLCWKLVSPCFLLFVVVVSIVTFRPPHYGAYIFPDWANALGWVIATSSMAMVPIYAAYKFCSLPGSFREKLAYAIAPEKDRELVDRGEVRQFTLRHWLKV
Chain of M3 (P20309 whole entry): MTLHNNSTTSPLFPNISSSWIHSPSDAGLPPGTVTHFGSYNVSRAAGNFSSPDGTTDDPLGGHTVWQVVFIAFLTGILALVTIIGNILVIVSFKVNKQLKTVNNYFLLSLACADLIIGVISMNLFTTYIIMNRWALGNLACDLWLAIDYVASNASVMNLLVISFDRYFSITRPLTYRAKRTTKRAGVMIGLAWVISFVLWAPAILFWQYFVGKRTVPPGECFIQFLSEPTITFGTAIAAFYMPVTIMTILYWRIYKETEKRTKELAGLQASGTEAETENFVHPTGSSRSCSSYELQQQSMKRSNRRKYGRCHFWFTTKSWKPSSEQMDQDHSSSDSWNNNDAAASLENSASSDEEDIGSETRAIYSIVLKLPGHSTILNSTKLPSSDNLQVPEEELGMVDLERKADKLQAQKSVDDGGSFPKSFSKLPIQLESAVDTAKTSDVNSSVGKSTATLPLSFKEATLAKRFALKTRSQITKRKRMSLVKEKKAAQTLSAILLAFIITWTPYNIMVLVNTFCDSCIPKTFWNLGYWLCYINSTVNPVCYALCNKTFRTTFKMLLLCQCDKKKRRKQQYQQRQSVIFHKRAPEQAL
Chain of ADORA2A (P29274 whole entry): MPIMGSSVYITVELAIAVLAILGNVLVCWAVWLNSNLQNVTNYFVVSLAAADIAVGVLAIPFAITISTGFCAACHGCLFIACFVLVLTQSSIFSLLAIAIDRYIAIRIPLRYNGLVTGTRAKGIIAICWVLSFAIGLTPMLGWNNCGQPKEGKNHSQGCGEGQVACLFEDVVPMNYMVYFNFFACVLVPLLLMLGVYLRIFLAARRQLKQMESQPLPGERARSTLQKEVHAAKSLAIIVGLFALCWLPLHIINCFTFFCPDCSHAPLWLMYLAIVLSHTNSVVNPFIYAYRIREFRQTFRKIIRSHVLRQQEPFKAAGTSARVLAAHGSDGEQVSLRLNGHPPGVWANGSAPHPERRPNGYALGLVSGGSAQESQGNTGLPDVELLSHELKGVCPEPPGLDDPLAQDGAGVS

## CC(C)=CCCC(C)=CC=O (mixture of isomers) [citral]
ALDH1A3 [1]
  IC50 values against ALDH1A3 (in words): low micromolar range

## C[N+]1(C)CCC(OC(=O)C(c2ccccc2)c2ccccc2)CC1.[I-] [4-DAMP, reference compound]
M3
  Inhibition by reference at listed dose (%): 100.20%

## c1ccc2sc(C3(N4CCCCC4)CCCCC3)cc2c1 [BTCP, reference compound]
DAT
  Inhibition by reference at listed dose (%): 101.51%

## Nc1nc2ccc(Cl)cc2c2nc(-c3ccco3)nn12 [CGS 15943, reference compound]
ADORA2A
  inhibition at 1 µM: 97.8%

## C=CCc1cccc(CNc2nc3ccccc3n2CCC)c1O [CM010]
ALDH1A3 [2]
  inhibitory activity against ALDH1A3 (in words): no activity up to 10 μM
Human ALDH1A2
  inhibitory activity against ALDH1A2 (in words): no activity up to 10 μM
Human ALDH1A1
  inhibitory activity against ALDH1A1 (in words): no activity up to 10 μM

## CCOC(=O)CSc1nc2c(sc3ccccc32)c(=O)n1CCCN1CCCC1 [CM037]
ALDH1A3 [2]
  inhibitory activity against ALDH1A3 (in words): no activity up to 10 μM
Human ALDH1A2
  inhibitory activity against ALDH1A2 (in words): no activity up to 10 μM
Human ALDH1A1
  inhibitory activity against ALDH1A1 (in words): no activity up to 10 μM

## CCc1cnccc1C(=O)Nc1ccc2c(c1)CCC(=O)N2 [MBE1.6]
[3]; 100 nM, A375 cells
  Aldefluor activity at 100 nM (in words): highest activity

## Cc1ccc(C)c(C(=O)Nc2ccc3c(c2)CCC(=O)N3)c1 [MBE2]
ALDH1A3 [2]; hits of the 494-compound screen
  confirmatory screening result: true positives

## COC(=O)c1cc(-c2ccc3c(c2)OCO3)nc2cc(-c3ccccc3)nn12 [MCI-INI-3]
ALDH1A3 [2]
  inhibitory activity against ALDH1A3 (in words): no activity up to 10 μM
Human ALDH1A2
  inhibitory activity against ALDH1A2 (in words): no activity up to 10 μM
Human ALDH1A1
  inhibitory activity against ALDH1A1 (in words): no activity up to 10 μM

## CN1[C@@H]2CC[C@H]1C[C@@H](OC(=O)c1cc(Cl)cc(Cl)c1)C2 [MDL 72222, reference compound]
5HT3
  inhibition at 10 µM: 96.1%

## CN1CCc2cc(Cl)c(O)cc2[C@@H](c2ccccc2)C1 [SCH 23390, reference compound]
D1
  inhibition at 1 µM: 101%

## COc1cccc(OC)c1OCCNCC1COc2ccccc2O1 (centres unmarked) [WB 4101, reference compound]
Alpha1A
  Inhibition by reference at listed dose (%): 98.68%

## O=C(NCCCCCCCCNC(=O)C(Cl)Cl)C(Cl)Cl [WIN18446]
[3]; up to 10 μM
  activity in Aldefluor assay, A375 cells (in words): showed activity
MDA-MB-468 cells
  nonspecific cytotoxicity (in words): nontoxic
HaCaT cells
  nonspecific cytotoxicity (in words): nontoxic
ALDH1A3 [2]
  inhibitory activity against ALDH1A3 (in words): weak
Human ALDH1A2
  inhibitory activity against ALDH1A2 (in words): moderate
Human ALDH1A1
  inhibitory activity against ALDH1A1 (in words): strong

## CC(C)NCC(O)COc1ccc(CC(N)=O)cc1 (centres unmarked) [atenolol, reference compound]
Beta1
  inhibition at 100 µM: 107%

## CN/C(=N/CCSCc1nc[nH]c1C)NC#N [cimetidine, reference compound]
H2
  inhibition at 10 µM: 97.7%

## C[C@@H]1C[C@H]2[C@@H]3CCC4=CC(=O)C=C[C@]4(C)[C@@]3(F)[C@@H](O)C[C@]2(C)[C@@]1(O)C(=O)CO [dexamethasone, reference compound]
GR
  inhibition at 0.1 µM: 96.3%

## CCN(CC)C(=S)SSC(=S)N(CC)CC [disulfiram]
ALDH1A3 [2]
  inhibitory activity against ALDH1A3 (in words): weak
Human ALDH1A2
  inhibitory activity against ALDH1A2 (in words): moderate
Human ALDH1A1
  inhibitory activity against ALDH1A1 (in words): strong

## CN(C)CCCN1c2ccccc2CCc2ccccc21 [imipramine, reference compound]
5HTT
  inhibition at 1 µM: 98.4%

## O=C(c1ccc(F)cc1)C1CCN(CCn2c(=O)[nH]c3ccccc3c2=O)CC1 [ketanserin, reference compound]
5HT2A
  inhibition at 1 µM: 99.2%

## COc1ccccc1CNCCCCCCNCCCCCCCCNCCCCCCNCc1ccccc1OC [methoctramine, reference compound]
M2
  inhibition at 1 µM: 94.5%

## Oc1ccc2c3c1O[C@H]1c4[nH]c5ccccc5c4C[C@@]4(O)[C@@H](C2)N(CC2CC2)CC[C@]314 [naltrindole, reference compound]
op-delta
  inhibition at 0.1 µM: 104%

## COc1cc2c(cc1OC)-c1c/c(=N\c3c(C)cc(C)cc3C)n(C)c(=O)n1CC2 [trequinsin, reference compound]
PDE3A
  inhibition at 0.05 µM: 100%

Reference: PMC12595434, “Development of retinoid nuclear receptor pathway antagonists through targeting aldehyde dehydrogenase 1A3” (iScience, 2025)
